# Measurements from PubChem BioAssay (NCI).
#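 Dose response: 5 concentrations. Exposure: 48 h. Format: 96-well plates. Endpoint: linear interpolation; highest concentration if not reached. TGI marks complete inhibition of growth.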
# Tests used:
# Experiment in all cases: growth of human tumour cells (NCI), 48 h
# HOP-62 NSCLC = system: HOP-62 NSCLC
# OVCAR-4 ovarian = system: OVCAR-4 ovarian
# SW-620 colon = system: SW-620 colon
# UACC-62 melanoma = system: UACC-62 melanoma
# SK-MEL-2 melanoma = system: SK-MEL-2 melanoma
# KM12 colon = system: KM12 colon
# OVCAR-3 ovarian = system: OVCAR-3 ovarian
# DMS 273 small cell lung = system: DMS 273 small cell lung
# HL-60(TB) leukemia = system: HL-60(TB) leukemia
# SF-295 CNS = system: SF-295 CNS
# A498 renal = system: A498 renal
# RPMI-8226 leukemia = system: RPMI-8226 leukemia
# ACHN renal = system: ACHN renal
# CCRF-CEM leukemia = system: CCRF-CEM leukemia
# NCI-H460 lung = system: NCI-H460 lung
# CAKI-1 renal = system: CAKI-1 renal
# SR leukemia = system: SR leukemia
Compound,TGI (HOP-62 NSCLC),TGI (OVCAR-4 ovarian),TGI (SW-620 colon),TGI (UACC-62 melanoma),TGI (SK-MEL-2 melanoma),TGI (KM12 colon),TGI (OVCAR-3 ovarian),TGI (DMS 273 small cell lung),TGI (HL-60(TB) leukemia),TGI (SF-295 CNS),TGI (A498 renal),TGI (RPMI-8226 leukemia),TGI (ACHN renal),TGI (CCRF-CEM leukemia),TGI (NCI-H460 lung),TGI (CAKI-1 renal),TGI (SR leukemia)
Nc1nc(NCCO)c(N=O)c(=O)[nH]1,> 100 µM,> 100 µM,> 100 µM,> 100 µM,> 100 µM,> 100 µM,> 100 µM,> 100 µM,> 100 µM,> 100 µM,> 100 µM,> 100 µM,> 100 µM,> 100 µM,> 100 µM,> 100 µM,
N#CCCN(c1ccc(/C=C2\N=C(Cc3ccccc3)OC2=O)cc1)S(=O)(=O)c1ccccc1,> 100 µM,,> 100 µM,> 100 µM,> 100 µM,> 100 µM,> 100 µM,> 100 µM,> 100 µM,> 100 µM,> 100 µM,> 100 µM,> 100 µM,> 100 µM,> 100 µM,> 100 µM,
O=C(CC(=O)Nc1cccc(Cl)c1)NNCC(=O)Nc1nnc(-c2ccccc2)s1,> 100 µM,5.99 µM,> 100 µM,> 100 µM,> 100 µM,> 100 µM,> 100 µM,> 100 µM,> 100 µM,> 100 µM,86.8 µM,86.6 µM,> 100 µM,,> 100 µM,> 100 µM,> 100 µM
NC(=O)c1cccc(C2OC(COP(=O)(O)O)C(O)C2O)c1 (centres undefined),> 50 µM,,> 50 µM,> 50 µM,> 50 µM,> 50 µM,> 50 µM,> 50 µM,> 50 µM,> 50 µM,> 50 µM,> 50 µM,> 50 µM,> 50 µM,> 50 µM,> 50 µM,
Nc1ccc2nc(NCc3ccc(F)cc3)cnc2c1,> 100 µM,> 100 µM,> 100 µM,> 100 µM,> 100 µM,> 100 µM,> 100 µM,> 100 µM,> 100 µM,> 100 µM,,> 100 µM,> 100 µM,> 100 µM,> 100 µM,,> 100 µM
CC(=O)O[C@]12CCCCC1C1(O)C(O)CCCCC12 (some centres undefined),> 100 µM,> 100 µM,> 100 µM,> 100 µM,> 100 µM,> 100 µM,,> 100 µM,> 100 µM,> 100 µM,,> 100 µM,> 100 µM,> 100 µM,> 100 µM,,> 100 µM
NC(=O)C#CC#CC#CCO,23.1 µM,3.53 µM,3.33 µM,4.32 µM,4.9 µM,12.2 µM,3.49 µM,4.1 µM,3.01 µM,11.6 µM,14.9 µM,,2.61 µM,,19.3 µM,,4.54 µM
O=C1[C@@H]2C(c3ccc(Cl)cc3Cl)=NO[C@@H]2C(=O)N1c1ccc(Cc2ccc(N3C(=O)[C@H]4C(c5ccc(Cl)cc5Cl)=NO[C@H]4C3=O)cc2)cc1,> 100 µM,> 100 µM,> 100 µM,> 100 µM,> 100 µM,> 100 µM,> 100 µM,> 100 µM,48.8 µM,> 100 µM,> 100 µM,> 100 µM,,> 100 µM,,> 100 µM,
Cc1ccc(N=NC2S/C(=C(\C#N)c3nc4ccccc4[nH]3)N(c3ccccc3)C2=O)cc1 (centres undefined),81.1 µM,> 100 µM,> 100 µM,> 100 µM,> 100 µM,,> 100 µM,> 100 µM,> 100 µM,> 100 µM,> 100 µM,,> 100 µM,> 100 µM,> 100 µM,> 100 µM,
CCCCCCCc1cc(OC(=O)c2c(C)cc(OC)cc2O)cc(O)c1C(=O)O,35.2 µM,78.2 µM,64.5 µM,43.7 µM,36.9 µM,46.2 µM,28.7 µM,87.9 µM,68.3 µM,50 µM,38 µM,74 µM,62.8 µM,78.6 µM,36 µM,43.4 µM,
CCCOC(=O)C1CCC(=O)N1C(=O)C(C)Cl (centres undefined),> 100 µM,> 100 µM,> 100 µM,> 100 µM,> 100 µM,> 100 µM,> 100 µM,> 100 µM,> 100 µM,> 100 µM,> 100 µM,> 100 µM,> 100 µM,> 100 µM,> 100 µM,> 100 µM,
COc1ccccc1/C=C(\C#N)C(=O)c1ccccc1,> 100 µM,> 100 µM,> 100 µM,> 100 µM,> 100 µM,> 100 µM,> 100 µM,> 100 µM,> 100 µM,> 100 µM,> 100 µM,> 100 µM,> 100 µM,> 100 µM,> 100 µM,> 100 µM,> 100 µM
COc1ccc(NC(=O)CC(=O)N2N=C(N(CCC#N)c3ccccc3Cl)CC2c2ccccc2)cc1 (centres undefined),> 100 µM,> 100 µM,> 100 µM,> 100 µM,> 100 µM,> 100 µM,> 100 µM,> 100 µM,> 100 µM,> 100 µM,> 100 µM,> 100 µM,> 100 µM,> 100 µM,> 100 µM,> 100 µM,> 100 µM
CCOc1ccc(NC(=O)C(=O)NO)cc1,> 100 µM,> 100 µM,> 100 µM,> 100 µM,> 100 µM,> 100 µM,> 100 µM,> 100 µM,> 100 µM,> 100 µM,> 100 µM,> 100 µM,> 100 µM,> 100 µM,> 100 µM,> 100 µM,> 100 µM
Cc1ccccc1C1OC(=O)c2ccccc21 (centres undefined),> 100 µM,,> 100 µM,> 100 µM,> 100 µM,> 100 µM,> 100 µM,> 100 µM,> 100 µM,,> 100 µM,,> 100 µM,> 100 µM,> 100 µM,,> 100 µM
